# Laboratory results: US20190111103A1, “NOVEL PEPTIDE OR SALT THEREOF, COMPOSITION FOR ENHANCING PROLIFERATION OF FIBROBLAST CELLS AND COMPOSITION FOR ENHANCING ELASTIN PRODUCTION IN FIBROBLAST CELLS AND CHONDROCYTES CONTAINING THE SAME” (Hayashikane Sangyo Co., Ltd., priority 2017, published 2019)
# How the values were obtained:
# [1] = tested on: normal human knee joint chondrocytes (NHAc-kn); test: Elastin production test in normal human knee joint chondrocytes (dot blot); format: cell-based
# Experimental: Normal human knee joint chondrocytes (NHAc-kn: 1.0×10^5 cells/mL) were seeded in a 24-well plate (900 μL/well, medium: CBM+0.5% FBS) and incubated under humidification condition at 37° C. in 5% CO2 atmosphere for 48 hours. The medium was exchanged and peptide VPGG and peptide VP was added (100 μL/well, final concentration: 0 to 5000 nM) and incubated under humidification condition at 37° C. in 5% CO2 atmosphere for 48 hours. From the cell culture thus obtained, supernatant was collected and dot-blotted onto a PVDF membrane. After blocking with PBST containing 5% skim milk, the membrane was washed with PBST. The membrane was reacted with rabbit anti-elastin antibody as a primary antibody, washed with PBST and reacted with HRP conjugate goat […] as a secondary antibody and washed with PBST. The membrane was reacted with a detection reagent ImmunoStar (FUJIFILM Wako Pure Chemical Corporation) and the amount of elastin production was estimated based on intensities of signals obtained.
# [2] = tested on: normal human skin fibroblast cells; test: Proliferation test of normal human skin fibroblast cells; format: cell-based; details: similar experiment with the hydrolysate
# Experimental: Skin fibroblast cells cultured in a culture flask was seeded in a 96-well plate at 3,500 cells/cm^2 ([…], medium: 10% FBS DMEM). After incubating for 24 hours at 37° C. under 5% CO2 condition, the liquid medium in the wells was removed, replaced with DMEM containing 0.5% FBS and incubated for 24 hours under similar conditions. The liquid medium in the wells was removed and the wells were washed with DPBS, after which DPBS was removed. Solutions of predetermined concentrations of peptide Val-Pro-Gly-Gly (VPGG) and peptide Val-Pro-Gly-Ala (VPGA) were prepared using DMEM containing 0.5% FBS were prepared and 100 μL of the solution was added to each well. Fibroblast cells were incubated for 4 days at 37° C. under 5% CO2 condition and supernatant was recovered. The supernatant recovered was used for a measurement of amount of elastin production in Example 2. DMEM containing 0.5% FBS was added and cells were counted using cell counting kit-8 (10 μL/well) and a cell proliferation rate relative to the cell number obtained from the sample without adding the peptides.
# [3] = tested on: human skin fibroblast cells; test: Migration activity test of normal human skin fibroblast cells; format: cell-based; details: 20 hours, membrane inserts pore size 8 μm, absorbance at 560 nm
# Experimental: Effect of peptide Val-Pro-Gly-Gly on a migration activity of fibroblast cells that relates to processes of recovery and regeneration of tissue and wound healing was investigated. To bottom of each well of 24-well plate of CytoSelect (registered trade mark) 24-well Cell Migration Assay Kit (Cell Biotics), DMEM medium (control), 500 μL of peptide Val-Pro-Gly-Gly or peptide Val-Pro-Gly (positive control: see “Elastin—Structure, Function and Pathology”, edited and written by Hiroyuki Ito, Elastin Study Group of Japan (not for sale), p. 124-137, 2008) dissolved in DMEM medium were added. Then, 300 μL of cell suspension of human skin fibroblast cells (P4 to 5) prepared by dispersing the cell in DMEM media (1×10^6 cells/mL) was added inside membrane inserts (pore size: 8 μm). The inserts were inserted in wells and incubated in a cell incubator at 37° C. for 20 hours (in preliminary examination, duration of incubation was also set to 6 hours). […] Cells were stained by adding 400 μL of cell stain liquid and staining for 10 minutes at room temperature. Then the inserts were washed with distilled water, dried and stain was confirmed by optical microscopic observation. […] of reaction mixture was placed in 96-well plate and absorbance at 560 nm was measured using a plate reader.
# [4] = tested on: human skin fibroblast cells; details: known from the literature (positive control); cited from earlier work
substance,measurement,setting,value
Val-Pro,effect on the elastin production in the chondrocytes,[1],promoting effect
Val-Pro-Gly-Ala (VPGA; printed: Val-Pro-Gly-Ala),cell proliferation rate compared with hydrolysate of elastin from bonitos bulbus arteriosus,[2],higher cell proliferation rate
Val-Pro-Gly-Gly (VPGG; printed: Val-Pro-Gly-Gly),cell proliferation rate compared with hydrolysate of elastin from bonitos bulbus arteriosus,[2],higher cell proliferation rate
same,effect for promoting cell migration compared with peptide Val-Pro-Gly (positive control),[3],significantly higher effect for promoting cell migration
Val-Pro-Gly,effect for promoting cell migration,[4],known to have the effect for promoting cell migration
